Source: patent publication US20210228660A1, “USE OF PROTEASOME INHIBITOR AND […] PREPARATION OF ANTI-TUMOR MEDICAMENT” (GUANGZHOU VIROTECH PHARMACEUTICAL CO., LTD., priority 2018, published 2021)

Key:
Type in all cases: cell-based
[1] = tested on: human hepatocellular carcinoma Huh 7; assay: MTT cell viability, various proteasome inhibitors and M1 virus, 72 h
Protocol: (§1) a) Inoculating cells, and drug administering treatment: cells in the logarithmic growth phase and the DMEM complete culture medium (containing 10% fetal bovine serum and 1% double antibody) were selected to prepare cell suspension, and were inoculated in a 96-well culture plate at a density of 4×10^3/well. 12 h later, the cells were completely adhered to the wall. The cells were divided into control group without medicament nor virus treatment, proteasome inhibitor group (including CEP-18770, MLN-9708, ONX-0912), M1 infected group and proteasome inhibitor/M1 combined group.
b) MTT reacted with intracellular succinate dehydrogenase: after culturing for 72 h, 20 μl (5 mg/ml) of MTT was added to each well and incubated for 4 h, at this time, the granular bluish violet formazan crystals formed in living cells could be observed under microscope.
(§2) c) Dissolving formazan granules: the supernatant was carefully removed, DMSO 100 μl/well was added to dissolve the crystal, vibrate in a microoscillator for 5 min, and then detect the optical density (OD value) of each well with wavelength of 570 nm on the enzyme-linked detector. Cell viability=OD value of medicament treatment group/OD value of control group x 100%.

[2] = tested on: human hepatocellular carcinoma Hep3B; assay: Cell morphology observation under phase contrast microscope, Hep3B; conditions: 48 h, Bortezomib 5 nM, M1 virus 0.001 moi, FIG. 1
Protocol: (§3) a) Cell culture: human hepatocellular carcinoma Hep3B and Huh 7 were grown in DMEM complete medium containing 10% FBS, 100 U/ml penicillin and 0.1 mg/ml streptomycin; all cell strains were cultured and passaged in a closed incubator at a constant temperature of 37° C. (95% relative humidity) with 5% CO2, and the growth was observed under inverted microscope. The cells were passaged about every 2 to 3 days, and the cells in the logarithmic phase were used in the formal experiment.
(§4) b) Cell treatment and morphological observation: cells in the logarithmic growth phase and the DMEM complete culture medium (containing 10% fetal bovine serum and 1% double antibody) were selected to prepare cell suspension, and the cells were inoculated in a 24-well culture plate at a density of 2.5×10^4/well.

[3] = tested on: human hepatocellular carcinoma Huh 7; assay: Cell morphology observation under phase contrast microscope, Huh 7; conditions: 48 h, Bortezomib 5 nM, M1 virus 0.1 moi, FIG. 1
Protocol: as §3, §4

[4] = tested on: human hepatocellular carcinoma Huh 7; assay: MTT cell viability, Bortezomib and M1 virus, 48 h; conditions: Huh-7, 48 h, read-out: relative cell viability of tumor cells
Protocol: as §1, with “Bortezomib treatment group,” for “proteasome inhibitor group (including CEP-18770, MLN-9708, ONX-0912),”, “infection” for “infected”, “Bortezomib/M1” for “proteasome inhibitor/M1”
b) MTT reacted with intracellular succinate dehydrogenase: after culturing for 48 h, 20 μl (5 mg/ml) of MTT was added to each well and incubated for 4 h, at this time, the granular bluish violet formazan crystals formed in living cells could be observed under microscope.
as §2, with “shaked” for “vibrate”, “detector. The experiment was repeated for 3 times in each group.” for “detector.”, “group×100%.” for “group x 100%.”
The EC50 shift of the two curves was calculated, that is, the EC50 shift in FIG. 2, the larger the difference value was, the more significant the medicament synergized.

[5] = Homo sapiens, Huh-7, 72 h, read-out: relative cell viability of tumor cells

For CC(C)C[C@H](NC(=O)[C@@H](NC(=O)c1cccc(-c2ccccc2)n1)[C@@H](C)O)B(O)O [CEP-18770, Delanzomib], the viability at 0.005 µM [1, 5] was 105%.

CC(C)C[C@H](NC(=O)[C@H](Cc1ccccc1)NC(=O)c1cnccn1)B(O)O [Bortezomib] was tested, and the “morphological changes of cells” value [2] was “no significant change in cell morphology”, the “morphological changes of cells” value [3] was “no significant change in cell morphology” and the viability at 0.005 µM [4] was 99.7%.

For Ixazomib [MLN-9708], the “relative cell viability of tumor cells” value ([1]; FIG. 4B, Huh 7, MTT, 72 h, MLN-9708 5 nM, M1 virus MOI=0.1) was 77.7%.

Work on COC[C@H](NC(=O)c1cnc(C)s1)C(=O)N[C@@H](COC)C(=O)N[C@@H](Cc1ccccc1)C(=O)[C@@]1(C)CO1 [ONX-0912, Oprozomib] yielded a viability at 0.05 µM [1, 5] of 70%.
